Marks after values point to notes of the source that are not given here.
Assays:
[1] = system: Ehrlich ascites tumor cells (EATC); assay: Antitumor activity in mice inoculated i.p. with Ehrlich ascites tumor cells; format: in vivo; conditions: for 50-day cure (mice) / Solid Tumors at 50 days (mice): 8 mice; for Acute, initial toxicity observation: C18 (stearoyl) homolog, 0.15 mmol/kg on day 1; for Normal at 60 days / Solid tumors at 60 days: L-threo isomer; for Weight Change after 10 days: mouse, in vivo
Experimental: Male mice of the ICR (Swiss Hsd) strain from Harlan--Sprague Dawley (Indianapolis, Ind.) were injected intraperitoneal with saline containing 2×10^6 Ehrlich ascites tumor cells (EATC) on day 0. […] Treatment began 24 hours later with intraperitoneal injections of saline or inhibitor, either as the acetate salt or as the hydrochloride salt. The inhibitor was dissolved in 40° C. saline and injected at 10 μl/g body weight. In the case of drugs that were difficult to dissolve, e.g. the hydrochlorides, a non-ionic, low toxicity detergent was included to emulsify the drug, making it suitable for injection. Two cages of mice were assigned to each control or experimental group and fed standard lab chow. In almost all cases, the mice were injected daily for a total of 10 doses.
The 1-tailed Student t-test for unpaired samples was used for statistical analysis.
The experimental procedure set forth above was again followed with homologs of PDMP made from fatty acids of 10 to 18 carbon atom length. The compounds were not resolved into D- and L-forms but the threo stereomers were used as the hydrochlorides. All samples were emulsified in Myrj 52 (15 mg/kg).

[2] = target: T1, glucosyltransferase (EATC enzyme) (Mus musculus, UniProt O88693); assay: Glucosyltransferase assay, microsomes from EATC; format: biochemical
T1 construct: Microsomes from EATC (0.50 mg protein) required 20 μM PDMP to reduce the glucosyltransferase activity in half; endogenous in cells; host or cells: Ehrlich ascites tumor cells (EATC), microsomes
T1 sequence (O88693 1-394): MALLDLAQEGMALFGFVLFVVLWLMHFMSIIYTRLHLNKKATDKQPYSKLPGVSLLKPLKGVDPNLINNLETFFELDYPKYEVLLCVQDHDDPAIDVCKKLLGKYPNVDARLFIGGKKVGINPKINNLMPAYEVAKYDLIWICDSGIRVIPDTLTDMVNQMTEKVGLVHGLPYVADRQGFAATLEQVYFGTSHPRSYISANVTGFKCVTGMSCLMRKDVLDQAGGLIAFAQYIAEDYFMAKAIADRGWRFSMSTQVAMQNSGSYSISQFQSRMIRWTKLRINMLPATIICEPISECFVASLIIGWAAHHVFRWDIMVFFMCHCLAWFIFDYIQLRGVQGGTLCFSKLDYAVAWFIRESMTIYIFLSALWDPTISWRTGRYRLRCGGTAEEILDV
Experimental: Evidence that D-threo-PDMP acts to inhibit GlcCer biosynthesis was provided as follows from assay of glucosyltransferase. Microsomes as source of enzyme were prepared by highspeed centrifugation and stored at -70° C. before use. The incubations were at 37° C. for 30 minutes with microsomes, ATP, liposomal octanoyl sphingosine, UDP-[^3 H]glu, Mg^2+, and dithioerythritol. Microsomes from EATC (0.50 mg protein) required 20 μM PDMP to reduce the glucosyltransferase activity in half. The microsomes from normal liver (72 μg protein) required 5 μM D-threo-PDMP. While the EATC enzyme seems to be less sensitive to the inhibitor, the intraperitoneal concentration of inhibitor is initially very high.

Ehrlich ascites cells [3] = assay: Growth of Ehrlich ascites cells in vivo (volume of packed cells); conditions: for Volume of packed cells / Volume of packed cells, % of controls: treatment begun 3 days after EATC inoculation, 5 injections, killed 1 day later, 100 mg/kg
Experimental: A suspension of GlcCer was injected into one group of 10 mice inoculated 1 day earlier with EATC as before. Injectable suspensions of GlcCer and galactosylceramide (GalCer) were prepared by mechanical grinding in saline (10 mg/ml) and injected at a dosage of 100 mg/kg. In one experiment, the mice were killed 1 day after the last of eight daily injections and the ascites cells were flushed out of the abdomen with buffered saline and washed.
Treatments were begun 3 days after EATC inoculation. Only 5 injections were given and the mice were killed 1 day later.

Ehrlich ascites cells [4] = conditions: mice bearing Ehrlich ascites carcinoma cells, injection of glucosylceramide (background); cited from earlier work
[5] = DL-threo hydrochloride in Myrj 52 emulsion, 0.3 mmol/kg, ten daily injections
[6] = DL-threo hydrochloride in Myrj 52 emulsion, C16 0.15 mmol/kg, six injections
[7] = DL-threo hydrochloride in Myrj 52 emulsion, C18 0.15 mmol/kg on day 1 and 0.075 mmol/kg the remaining 9 days

CCCCCCCCCC(=O)N[C@H](CN1CCOCC1)[C@H](O)c1ccccc1 (relative stereo) [compound 10, 1-Phenyl-2-Decanoylamino-3-Morpholino-1-Propanol]
50-day cure (mice) [1, 5]: 5
Solid Tumors at 50 days (mice) [1, 5]: 1
Mice that developed small solid tumors that were later resorbed ([1]; decanoyl group, 0.3 mmol/kg in Myrj emulsion): two
Long-term cure rate ([1]; dosage of 128 mg/kg, Myrj emulsion): 50%

CCCCCCCCCCCC(=O)N[C@H](CN1CCOCC1)[C@H](O)c1ccccc1 (relative stereo) [compound 12]
Body Weight Increase at the 10-day point [1, 5]: -0.1 g
50-day cure (mice) [1, 5]: 2
Solid Tumors at 50 days (mice) [1, 5]: 2

CCCCCCCCCCCCCC(=O)N[C@H](CN1CCOCC1)[C@H](O)c1ccccc1 (relative stereo) [compound 14]
Body Weight Increase at the 10-day point [1, 5]: 0.1 g
50-day cure (mice) [1, 5]: 1
Solid Tumors at 50 days (mice) [1, 5]: 4

CCCCCCCCCCCCCCCC(=O)N[C@H](CN1CCOCC1)[C@H](O)c1ccccc1 (relative stereo) [compound 16]
Body Weight Increase at the 10-day point [1, 6]: -1.1 g
Survival after 10 days [1, 6]: 5/8
50-day cure (mice) [1, 6]: 3
Solid Tumors at 50 days (mice) [1, 6]: 1
Toxicity observation ([1]; palmitoyl homolog, daily injections in Myrj 52): too toxic to be used more than six times

CCCCCCCCCCCCCCCCCC(=O)N[C@H](CN1CCOCC1)[C@H](O)c1ccccc1 (relative stereo) [compound 18]
Acute, initial toxicity observation [1]: high initial weight loss
Acute, initial toxicity observation ([1]; listed as C18 homolog): absence of an acute, initial toxicity reaction
Body Weight Increase at the 10-day point [1, 7]: 2.5 g
50-day cure (mice) [1, 7]: 6
Solid Tumors at 50 days (mice) [1, 7]: 0

CCCCCCCCCC(=O)N[C@@H](CN1CCOCC1)[C@@H](O)c1ccccc1 [L-threo-PDMP, 1-Phenyl-2-Decanoylamino-3-Morpholino-1-Propanol]
Effectiveness in curing the tumors compared with the D-enantiomer ([1]; 60-day observation period, 75-150 mg/kg): more effective in curing the tumors than the D-enantiomer
Losses of animals during the initial 10 days of treatment ([1]; 75-150 mg/kg): no losses of animals
Ascites fluid in treated mice ([1]; 75-150 mg/kg, 10 days): At no time was ascites fluid visible
Normal at 60 days ([1]; 75 mg/kg, 10 days): 4 # of mice
Solid tumors at 60 days ([1]; 75 mg/kg, 10 days): 2 # of mice
Normal at 60 days ([1]; 100 mg/kg, 10 days): 4 # of mice
Solid tumors at 60 days ([1]; 100 mg/kg, 10 days): 3 # of mice
Normal at 60 days ([1]; 125 mg/kg, 10 days): 2 # of mice
Solid tumors at 60 days ([1]; 125 mg/kg, 10 days): 3 # of mice
Normal at 60 days ([1]; 150 mg/kg, 10 days): 5 # of mice
Solid tumors at 60 days ([1]; 150 mg/kg, 10 days): 3 # of mice
Mice in which disappearance of solid tumors was observed ([1]; at the higher dosages): two
Acute toxicity reactions of the mice ([1]; compared with the D-isomer): distinctly smaller than with the D-isomer
Weight Change after 10 days ([1]; 75 mg/kg): 3.2 g
Weight Change after 10 days ([1]; 100 mg/kg): 1.9 g
Weight Change after 10 days ([1]; 125 mg/kg): 0.8 g
Weight Change after 10 days ([1]; 150 mg/kg): -0.2 g
Inhibition of ceramide glucosyltransferase ([2]; general statement): ineffective
Inhibition of the EATC enzyme ([2]; microsomes from EATC): did not inhibit

galactosylceramide [GalCer]
Stimulation of EATC growth (Ehrlich ascites cells [3]; Experiment 7, 100 mg/kg): no stimulation of EATC growth
Volume of packed cells (Ehrlich ascites cells [3]): 2.29 ± 1.21 ml/mouse
Volume of packed cells, % of controls (Ehrlich ascites cells [3]): 84 % of controls

glucosylceramide [GlcCer]
Increase in the number of cancer cells (Ehrlich ascites cells [4]): greater than 50%
Packed, centrifuged ascites cells (mean value per mouse) (Ehrlich ascites cells [3]; EATC mice, eight daily injections from day 1, killed 1 day after the last, GlcCer 100 mg/kg, saline controls 3.07 ml): 4.68 mL
Increase of packed cells over saline-injected controls (Ehrlich ascites cells [3]; EATC mice, eight daily injections, GlcCer 100 mg/kg, p less than 0.05): 52%
Volume of packed cells (Ehrlich ascites cells [3]): 4.13 ± 0.63 ml/mouse
Volume of packed cells, % of controls (Ehrlich ascites cells [3]): 152 % of controls

— patent US5041441A, “Method of chemotherapy using 1-phenyl-2-decanoylamino-3-morpholino-1-propanol” (The Regents of the University of Michigan, priority 1988, dated 1991)
